The values below come from patent US20260263555A1, “ANNEXIN A1 DELAYED DOSING” (Reso Ther Pharma A/S, priority 2023, published 2026).

Entries after “also recorded” stand apart in the source; their conditions may differ. No end group written: not given here.

In assay [1] the test system is rat model of acute myocardial infarction. Description: Delayed Annexin A1 peptide dosing in a rat model of acute myocardial infarction (30 minutes ischemia, 24 hours reperfusion; Evans blue/TTC infarct size). The format is in vivo, Sprague Dawley rats. To be noted: vs vehicle. The protocol: Myocardial infarction was induced by 30 minutes ischemia via obstruction of coronary perfusion by occlusion of the left coronary artery followed by 24 hours reperfusion. Sprague Dawley rats were treated by administration with Peptide 1 (30 ug/kg) three times with treatment initiation either at the time of reperfusion (T0 h, T3 h, T6 h) (Group 1), or with a delayed treatment initiation starting either at 1 hour post establishment of reperfusion (T1 h, T4 h, T7 h) (Group 2), or at 2 hours post establishment of reperfusion (T2 h, T5 h, T8 h) (Group 3).
At the end of 24 hours reperfusion period, the left coronary artery was reoccluded and Evans blue dye solution injected. Hearts were excised from the rat and stored at −20° C. before being sliced into 1 mm thick transverse sections. Heart sections were incubated with triphenyltetrazolium chloride (TTC, 1%) at 37° C. for 30 minutes to demarcate the viable and nonviable myocardium within the risk zone. Area at risk and infarcted area were determined using image software.

Assay [2] has as its system recruitment of neutrophils to the site of injury/inflammation. The note with it: models of myocardial I/R, mesentery I/R, glycogen peritonitis and IL1 air pouch; cited from earlier work.

As for “AMVSEFLKQAWFIENEEQEYVQTLKSSKGGPGSAVSPYPTFNPSSDV (AMVSEFLKQAWFIENEEQEYVQTLKSSKGGPGSAVSPYPTFNPSSDV-NH2; ends and bridges not checked) [Peptide 1]”, the infarct size result in assay [1] (Group 1: 30 ug/kg three times (T0 h, T3 h, T6 h), first dosage at establishment of reperfusion) is on record as “significantly reduced infarct size”; in assay [1] (Group 2: 30 ug/kg three times (T1 h, T4 h, T7 h), first dosage 1 hour post establishment of reperfusion) it was “reduced infarct size to a similar degree; also recorded: significantly reduced infarct size”; in assay [1] (Group 3: 30 ug/kg three times (T2 h, T5 h, T8 h), first dosage 2 hours post establishment of reperfusion), “reduced infarct size to a similar degree; also recorded: significantly reduced infarct size”.

As to “Ac2-26: Annexin A1 peptide which mimics the 2nd to the 26th amino acids of the 54-amino acid N-terminal region (Ac-AMVSEFLKQAWFIENEEQEYVQTVK; UniProt P04083 2-26, looked up, fragment)”, the “recruitment of neutrophils to the site of injury/inflammation” value in assay [2] is on record as “significantly reduce the recruitment of neutrophils”.
